Test results reported in article PMC9780108, “An intrinsically disordered antimicrobial peptide dendrimer from stereorandomized virtual screening” (Cell Reports. Physical Science, 2022).
≈ marks a conversion by molar mass, not a printed value. Positions of bridges follow the written chain, without caps; N, C: chain ends. Non-standard residues stand in square brackets, D forms with d. Residues, ends and D or L forms follow the SMILES beside them. Groups on a side chain read outwards from the residue. Chains are numbered I, II in the order given. *: point of attachment. X3 = CC(C)C[C@H](NC(=O)CCCCCN)C(=O)NCCCC[C@H](NC(=O)[C@H](CC(C)C)NC(=O)CCCCCN)C(=O)*; Ahx = NCCCCCC(=O)O

Key:
S. aureus Newman = settings: Newman, pH 7.4
K. pneumoniae OXA-48 = settings: OXA-48, pH 7.4
P. aeruginosa PA14 = settings: PA14, pH 7.4
S. maltophilia = settings: pH 7.4
K. pneumoniae NCTC 418 = settings: for MIC at pH 5.0, K. pneumoniae NCTC 418: NCTC 418, pH 5; for MIC at pH 7.4, K. pneumoniae NCTC 418: NCTC 418, pH 7.4; for MIC at pH 8.0, K. pneumoniae NCTC 418: NCTC 418, pH 8
P. aeruginosa ZEM-1A = settings: ZEM-1A, pH 7.4
E. coli W3110 = settings: for MIC at pH 5.0, E. coli W3110: W3110, pH 5; for MIC at pH 7.4, E. coli W3110: W3110, pH 7.4; for MIC at pH 8.0, E. coli W3110: W3110, pH 8
P. aeruginosa ZEM9A = settings: ZEM9A, pH 7.4
B. cenocepacia = settings: pH 7.4
A. baumannii ATCC 19606 = settings: for MIC at pH 5.0, A. baumannii ATCC 19606: ATCC 19606, pH 5; for MIC at pH 7.4, A. baumannii ATCC 19606: ATCC 19606, pH 7.4; for MIC at pH 8.0, A. baumannii ATCC 19606: ATCC 19606, pH 8
E. cloacae = settings: pH 7.4
P. aeruginosa PAO1 = settings: for MIC at pH 5.0, P. aeruginosa PAO1: PAO1, pH 5; for MIC at pH 7.4, P. aeruginosa PAO1: PAO1, pH 7.4; for MIC at pH 8.0, P. aeruginosa PAO1: PAO1, pH 8
[1] = tested on: S aureus COL (methicillin-resistant Staphylococcus aureus); settings: for MIC at pH 5.0, S aureus COL: COL (methicillin-resistant, pH 5); for MIC at pH 7.4, S aureus COL: COL (methicillin-resistant, pH 7.4); for MIC at pH 8.0, S aureus COL: COL (methicillin-resistant, pH 8)
HEK293 cell line = assay type: cell-based; settings: 48 h
Experimental: HEK 293 cell line were cultured and maintained in DMEM (Dulbeccos modified Eagle
medium, Sigma Aldrich) supplemented with 10% FBS (Sigma Aldrich) and 1%
penicillin/streptomycin. Cells were incubated in a humidified incubator at 37°C in the presence
HEK 293 cell were seeded into 96 well plates at the density of 2 × 10^3 cells/well and incubated
in DMEM containing 10% FBS for 10-14 hours at 37°C in the presence of 5% CO2. The next
day, stock solution of compounds were prepared at concentration of 2 mg/mL in DMEM
containing 10% FBS. 1/2 or 1/3 serial dilution of the peptide dendrimers from 2 mg/mL or 200
µg/mL were performed in DMEM containing 10% FBS. The medium was removed from cell
culture and replaced with the compounds at different concentration after washing with PBS.
The cells were incubated in DMEM containing 10% FBS at 37°C in the presence of 5% CO 2.
Negative control was untreated cell culture without compounds and blank control was wells
without cell but only medium. After 48 hours, a final concentration of 10% AlamarBlue®
(Thermo Fisher Scientific, Reinach, CH) was added to each well . The cells were incubated for
3-5 hours at 37°C with 5% CO 2. The fluorescence was then measured on a Tecan Infinite
M1000 Pro plate reader at λex = 560 nm and λem = 590 nm. The value was normalized
according to the untreated cells.

Compound	MIC, S. aureus Newman (S. aureus Newman) [µg/mL]	MIC, K. pneumoniae OXA-48 (K. pneumoniae OXA-48) [µg/mL]	MIC, P. aeruginosa PA14 (P. aeruginosa PA14) [µg/mL]	MIC, S. maltophilia (S. maltophilia) [µg/mL]	MIC at pH 5.0, K. pneumoniae NCTC 418 (K. pneumoniae NCTC 418) [μg/mL]	MIC at pH 7.4, K. pneumoniae NCTC 418 (K. pneumoniae NCTC 418) [μg/mL]	MIC at pH 8.0, K. pneumoniae NCTC 418 (K. pneumoniae NCTC 418) [μg/mL]	MIC, P. aeruginosa ZEM-1A (P. aeruginosa ZEM-1A) [µg/mL]	MIC at pH 5.0, E. coli W3110 (E. coli W3110) [μg/mL]	MIC at pH 7.4, E. coli W3110 (E. coli W3110) [μg/mL]	MIC at pH 8.0, E. coli W3110 (E. coli W3110) [μg/mL]	MIC at pH 5.0, A. baumannii ATCC 19606 (A. baumannii ATCC 19606) [μg/mL]	MIC at pH 7.4, A. baumannii ATCC 19606 (A. baumannii ATCC 19606) [μg/mL]	MIC at pH 8.0, A. baumannii ATCC 19606 (A. baumannii ATCC 19606) [μg/mL]	MIC at pH 5.0, P. aeruginosa PAO1 (P. aeruginosa PAO1) [μg/mL]	MIC at pH 7.4, P. aeruginosa PAO1 (P. aeruginosa PAO1) [μg/mL]	MIC at pH 8.0, P. aeruginosa PAO1 (P. aeruginosa PAO1) [μg/mL]	MIC at pH 5.0, S aureus COL [1] [μg/mL]	MIC at pH 7.4, S aureus COL [1] [μg/mL]	MIC at pH 8.0, S aureus COL [1] [μg/mL]	also measured
CC(C)C[C@@H](NC(=O)[C@H](N)CCCCN)C(=O)NCCCC[C@@H](NC(=O)[C@@H](CC(C)C)NC(=O)[C@H](N)CCCCN)C(=O)N[C@H](CC(C)C)C(=O)NCCCC[C@@H](NC(=O)[C@@H](CC(C)C)NC(=O)[C@@H](CCCCNC(=O)[C@@H](CC(C)C)NC(=O)[C@H](N)CCCCN)NC(=O)[C@@H](CC(C)C)NC(=O)[C@H](N)CCCCN)C(=O)N[C@H](CCCCN)C(=O)N[C@H](CC(C)C)C(=O)N[C@H](CC(C)C)C(=O)NCCCC[C@@H](NC(=O)[C@@H](CC(C)C)NC(=O)[C@@H](CC(C)C)NC(=O)[C@@H](CCCCN)NC(=O)[C@@H](CCCCNC(=O)[C@@H](CC(C)C)NC(=O)[C@@H](CCCCNC(=O)[C@@H](CC(C)C)NC(=O)[C@H](N)CCCCN)NC(=O)[C@@H](CC(C)C)NC(=O)[C@H](N)CCCCN)NC(=O)[C@@H](CC(C)C)NC(=O)[C@@H](CCCCNC(=O)[C@@H](CC(C)C)NC(=O)[C@H](N)CCCCN)NC(=O)[C@@H](CC(C)C)NC(=O)[C@H](N)CCCCN)C(=O)N[C@H](CC(C)C)C(=O)N[C@H](CCCCN)C(=O)N[C@H](CCCCN)C(N)=O [D-X22] (HELM PEPTIDE1{[dK].[dL].[dK].[dL].[dK].[dK].[dL].[dL].[dK].[dL].[dK].[dK].[am]}|PEPTIDE2{[CC(C)C[C@@H](NC(=O)[C@H](N)CCCCN)C(=O)NCCCC[C@@H](NC(=O)[C@@H](CC(C)C)NC(=O)[C@H](N)CCCCN)C(=O)[*:2]].[dL]}|PEPTIDE3{[dK].[dL]}|PEPTIDE4{[dK].[dL].[dK].[dL].[dK].[dK].[dL].[dL]}|PEPTIDE5{[CC(C)C[C@@H](NC(=O)[C@H](N)CCCCN)C(=O)NCCCC[C@@H](NC(=O)[C@@H](CC(C)C)NC(=O)[C@H](N)CCCCN)C(=O)[*:2]].[dL]}|PEPTIDE6{[dK].[dL]}$PEPTIDE1,PEPTIDE2,5:R3-2:R2|PEPTIDE1,PEPTIDE3,3:R3-2:R2|PEPTIDE4,PEPTIDE5,5:R3-2:R2|PEPTIDE4,PEPTIDE6,3:R3-2:R2|PEPTIDE1,PEPTIDE4,9:R3-8:R2$$$V2.0)	64 (≈ 14.6 µM)	4 (≈ 0.914 µM)	4 (≈ 0.914 µM)	4 (≈ 0.914 µM)	> 64	> 64	16	4 (≈ 0.914 µM)	8	4	4	16	8	4	16	4	4	> 64	> 64	4	MIC, P. aeruginosa ZEM9A (P. aeruginosa ZEM9A): 8 µg/mL (≈ 1.83 µM); MIC, B. cenocepacia (B. cenocepacia): >64 µg/mL; MIC, E. cloacae (E. cloacae): 8 µg/mL (≈ 1.83 µM)
CC(C)C[C@H](NC(=O)[C@H](CC(C)C)NC(=O)[C@H](CCCCN)NC(=O)[C@H](CCCCNC(=O)[C@H](CC(C)C)NC(=O)[C@H](CCCCNC(=O)[C@H](CC(C)C)NC(=O)[C@@H](N)CCCCN)NC(=O)[C@H](CC(C)C)NC(=O)[C@@H](N)CCCCN)NC(=O)[C@H](CC(C)C)NC(=O)[C@H](CCCCNC(=O)[C@H](CC(C)C)NC(=O)[C@@H](N)CCCCN)NC(=O)[C@H](CC(C)C)NC(=O)[C@@H](N)CCCCN)C(=O)NCCCC[C@H](NC(=O)[C@H](CC(C)C)NC(=O)[C@H](CC(C)C)NC(=O)[C@H](CCCCN)NC(=O)[C@H](CCCCNC(=O)[C@H](CC(C)C)NC(=O)[C@H](CCCCNC(=O)[C@H](CC(C)C)NC(=O)[C@@H](N)CCCCN)NC(=O)[C@H](CC(C)C)NC(=O)[C@@H](N)CCCCN)NC(=O)[C@H](CC(C)C)NC(=O)[C@H](CCCCNC(=O)[C@H](CC(C)C)NC(=O)[C@@H](N)CCCCN)NC(=O)[C@H](CC(C)C)NC(=O)[C@@H](N)CCCCN)C(=O)N[C@@H](CC(C)C)C(=O)N[C@@H](CCCCN)C(=O)N[C@@H](CCCCN)C(N)=O [L-X22] (HELM PEPTIDE1{K.L.K.L.K.K.L.L.K.L.K.K.[am]}|PEPTIDE2{[CC(C)C[C@H](NC(=O)[C@@H](N)CCCCN)C(=O)NCCCC[C@H](NC(=O)[C@H](CC(C)C)NC(=O)[C@@H](N)CCCCN)C(=O)[*:2]].L}|PEPTIDE3{K.L}|PEPTIDE4{K.L.K.L.K.K.L.L}|PEPTIDE5{[CC(C)C[C@H](NC(=O)[C@@H](N)CCCCN)C(=O)NCCCC[C@H](NC(=O)[C@H](CC(C)C)NC(=O)[C@@H](N)CCCCN)C(=O)[*:2]].L}|PEPTIDE6{K.L}$PEPTIDE1,PEPTIDE2,5:R3-2:R2|PEPTIDE1,PEPTIDE3,3:R3-2:R2|PEPTIDE4,PEPTIDE5,5:R3-2:R2|PEPTIDE4,PEPTIDE6,3:R3-2:R2|PEPTIDE1,PEPTIDE4,9:R3-8:R2$$$V2.0)	>64	8 (≈ 1.83 µM)	4 (≈ 0.914 µM)	4 (≈ 0.914 µM)	> 64	> 64	8	4 (≈ 0.914 µM)	8	4	2	8	4	2	8	4	4	> 64	> 64	8	MIC, P. aeruginosa ZEM9A (P. aeruginosa ZEM9A): 32 µg/mL (≈ 7.31 µM); MIC, B. cenocepacia (B. cenocepacia): >64 µg/mL; MIC, E. cloacae (E. cloacae): 4 µg/mL (≈ 0.914 µM)
CC(C)C[C@H](NC(=O)CCCCCN)C(=O)NCCCC[C@H](NC(=O)[C@H](CC(C)C)NC(=O)CCCCCN)C(=O)N[C@@H](CC(C)C)C(=O)NCCCC[C@H](NC(=O)[C@H](CC(C)C)NC(=O)[C@H](CCCCNC(=O)[C@H](CC(C)C)NC(=O)CCCCCN)NC(=O)[C@H](CC(C)C)NC(=O)CCCCCN)C(=O)N[C@@H](CCCCN)C(=O)N[C@@H](CC(C)C)C(=O)N[C@@H](CC(C)C)C(=O)NCCCC[C@H](NC(=O)[C@H](CC(C)C)NC(=O)[C@H](CC(C)C)NC(=O)[C@H](CCCCN)NC(=O)[C@H](CCCCNC(=O)[C@H](CC(C)C)NC(=O)[C@H](CCCCNC(=O)[C@H](CC(C)C)NC(=O)CCCCCN)NC(=O)[C@H](CC(C)C)NC(=O)CCCCCN)NC(=O)[C@H](CC(C)C)NC(=O)[C@H](CCCCNC(=O)[C@H](CC(C)C)NC(=O)CCCCCN)NC(=O)[C@H](CC(C)C)NC(=O)CCCCCN)C(=O)N[C@@H](CC(C)C)C(=O)N[C@@H](CCCCN)C(=O)N[C@@H](CCCCN)C(N)=O [L-aX22] (I: H-[Ahx]LK([Leu-Ahx])LK([Leu-X3])KLLKLKK-NH2 / II: H-[Ahx]LK([Leu-Ahx])LK([Leu-X3])KLL; amide I:9-II:C)	–	–	–	–	64	8	8	–	2	4	4	2	4	4	16	8	16	64	16	4	IC50 HEK293 (HEK293 cell line): 24 ± 3 µg/mL (≈ 5.64 µM)
